Tests used:
[1] = test system: NCI-H727 cells; assay: MTT proliferation assay, NCI-H727; assay type: cell-based, human; details: 72 hours incubation, drug applied every 24 hrs, 10^−10 to 10^−6
[2] = test system: p21^WAF1/CIP1 transcript in NCI-H727 cells; assay: Real-time PCR p21WAF1/CIP1 transcripts, NCI-H727; assay type: cell-based, human; details: NCI-H727, 24 hrs
[3] = test system: sst4; details: read-out: sst4 receptor subtype specificity (IC50); human receptor; cited from earlier work
[4] = test system: Ki67 transcript in KRJ-I cells; assay: Real-time PCR Ki67 transcripts, KRJ-I; assay type: cell-based, human
[5] = test system: p21^WAF1/CIP1 transcript in NCI-H720 cells; assay: Real-time PCR p21WAF1/CIP1 transcripts, NCI-H720; assay type: cell-based, human
[6] = test system: ERK1/2 phosphorylation in KRJ-I cells; assay: ELISA; assay type: cell-based, human
[7] = test system: p21^WAF1/CIP1 transcript in KRJ-I cells; assay: Real-time PCR p21WAF1/CIP1 transcripts, KRJ-I; assay type: cell-based, human; details: IC50 concentration, 24 hrs, p<0.01 vs. control, Mean±SEM, n=4
[8] = test system: sst1; details: read-out: sst1 receptor subtype specificity (IC50); human receptor; cited from earlier work
[9] = test system: ERK1/2 phosphorylation in NCI-H727 cells; assay: ELISA; assay type: cell-based, human; details: NCI-H727, 30 mins
[10] = test system: sst5; details: read-out: sst5 receptor subtype specificity (IC50); human receptor; cited from earlier work
[11] = test system: sst3; details: read-out: sst3 receptor subtype specificity (IC50); human receptor; cited from earlier work
[12] = test system: sst2; details: read-out: sst2 receptor subtype specificity (IC50); human receptor; cited from earlier work
[13] = test system: Ki67 transcript in NCI-H720 cells; assay: Real-time PCR Ki67 transcripts, NCI-H720; assay type: cell-based, human

Compound | Effect on NCI-H727 proliferation [1] | p21^WAF1/CIP1 transcripts [2] | IC50 [3] [nM] | Ki67 transcript down regulated, vs. control ([4]; IC50 concentration, 24 hrs, p<0.01 vs. control, Mean±SEM, n=4) [%] | p21^WAF1/CIP1 transcript levels increased, vs. control ([5]; NCI-H720, IC50 concentration, 24 hr, p<0.01 vs. control, Mean±SEM, n=4) [%] | Activation of ERK1/2 signaling, vs. control ([6]; IC50 concentration, 30 mins, p=0.05 vs. control, Mean±SEM, n=4) [%] | p21^WAF1/CIP1 transcripts elevated, vs. control [7] [%] | IC50 [8] [nM] | ERK phosphorylation [9] | IC50 [10] [nM] | IC50 [11] [nM] | IC50 [12] [nM] | Ki67 transcript levels decreased, vs. unstimulated cells ([13]; NCI-H720, IC50 concentration, 24 hr, p<0.01, Mean±SEM, n=4) [%] | Inhibition of lanreotide Ki67 down regulation by PD98059 ([4]; p<0.05 vs. lanreotide alone) | Reversal of lanreotide-induced p21^WAF1/CIP1 increase by PD98059 ([5]; NCI-H720, p<0.05 vs. lanreotide alone) | Inhibition of lanreotide-activated ERK1/2 signaling by PD98059 ([6]; PD98059 pre-incubated 10 min prior to lanreotide) | Ki67 transcript decrease by lanreotide when inhibited by PD98059 ([13]; NCI-H720, lanreotide 24 hr with PD98059, p<0.05 vs. lanreotide alone) [%]
CC(C)[C@@H]1NC(=O)[C@H](CCCCN)NC(=O)[C@@H](Cc2c[nH]c3ccccc23)NC(=O)[C@H](Cc2ccc(O)cc2)NC(=O)[C@@H](NC(=O)[C@H](N)Cc2ccc3ccccc3c2)CSSC[C@@H](C(=O)N[C@H](C(N)=O)[C@@H](C)O)NC1=O [Lanreotide] | No effect | not significantly up-regulated | > 1000 | 73±12 | 140±27 | 25±8 | 175±21 | > 1000 | no effect | 12.7 | 98 | 0.75 | 45±7 | – | – | – | –
COc1cccc(-c2cc(=O)c3ccccc3o2)c1N [PD98059] | – | – | – | – | – | – | – | – | – | – | – | – | – | inhibited | reversible | could be inhibited | 6±2
Somatostatin-14 | – | – | 1.77 | – | – | – | – | 1.95 | – | 1.41 | 1.2 | 0.25 | – | – | – | – | –
Somatostatin-28 | – | – | 5.4 | – | – | – | – | 1.86 | – | 0.4 | 1.3 | 0.31 | – | – | – | – | –
